{"source": "patent US20220257617A1", "about": "“COMPOSITIONS AND METHODS FOR KELOIDLESS HEALING” (priority 2017, published 2022)", "key": {"NIH 3T3 cells": {"test_system": "NIH 3T3 cells", "assay": "Col1a1/Col3a1 mRNA expression in dermal fibroblasts (qRT-PCR)", "type": "cell-based, mouse", "details": "for collagen transcription (Col1a1/Col3a1 mRNA): NIH 3T3 stimulated with 1 μM S1P for 24 hours in presence of 10 μM inhibitor", "description": "Mouse dermal fibroblast NIH 3T3 cells were cultured in DMEM. To analyze the production of collagens, ascorbic acid 2-phosphate (Sigma-Aldrich) was added in culture medium to 0.2 mM of final concentration.\nWe performed sCA preparation as previously published (23). We mixed 4 μl of 1M CaCl2) with 2 μg of plasmid DNA in 1 mL of an inorganic solution (NaHCO3; 44 mM, NaH2PO4; 0.9 mM, CaCl2); 1.8 mM, pH 7.5), then incubated at 37° C. for 30 min. The solution was centrifuged at 12,000 rpm for 3 min, and the pellet was dissolved with DMEM. We sonicated the solution in a water bath for 10 min to generate sCA. Cells were cultured in 6 well plate for 24 hours, then incubated with sCA-DMEM solution for 6 hours. We changed medium into DMEM with 10% FBS and incubated for additional 48 hours, then collected for total RNA isolation.\nTotal RNA was extracted using TRIzol® Regent (Invitrogen). cDNA was then synthesized using High Capacity cDNA Reverse Transcription Kits (Applied Biosystems, Foster City, Calif.). qRT-PCR was performed using an CFX96 Real-Time System (Bio-Rad, Hercules, Calif.) with PowerUp SYBR Green master mix (Bio-Rad). GAPDH served as the internal control. Relative expression was calculated using the 2-ΔΔCt method with correction for different amplification efficiencies."}, "mouse excisional wound": {"test_system": "mouse excisional wound", "assay": "Mouse excisional wound splinting model, wound area analysis", "type": "in vivo", "from_the_text": "Mouse excisional wound splinting model were generated as previously published 1. Mice were anesthetized using isoflurane and removed dorsal hair. Two of 5 mm-diameter full-thickness skin punches were created symmetrically besides the midline. 12 mm diameter circle-shaped silicon lubber splints in which 6 mm diameter circles were punched in center were used for wound splinting. […] were fixed with instant-bonding adhesive and sutures around wounds. After application with any ointment, dressings were performed with Tegaderm (3M, Maplewood, Minn.). S1P was purchased from Sigma-Aldrich (Carlsbad, Calif.). 1 mM S1P in 4% bovine serum albumin was prepared with sonication, diluted 1000-fold for 1 μM ointment or 10-fold for 100 μM ointment with Aquaphor® and mixed well. We generated sCA with 100 ug plasmid DNA and dissolved the sCA pellet with 50 μl PBS. Then we mixed all of the solution into 200 μl of Aquaphor®. We used 250 μl ointment for 4 wounds of 2 mice. Digital photo images were analyzed using GIMP 2.8 software. The pixels of wound area were normalized by those of inside area of silicon splint. Then, the ratios devised by wound area at day 0 were calculated."}, "[1]": {"test_system": "inflammatory cells in wound", "assay": "Flow cytometry of cells separated from mouse wound tissues", "type": "in vivo", "details": "1 uM S1P topical vs vehicle", "from_the_text": "Mouse excisional wound splinting model were generated as previously published 1. Mice were anesthetized using isoflurane and removed dorsal hair. Two of 5 mm-diameter full-thickness skin punches were created symmetrically besides the midline. 12 mm diameter circle-shaped silicon lubber splints in which 6 mm diameter circles were punched in center were used for wound splinting. […] were fixed with instant-bonding adhesive and sutures around wounds. After application with any ointment, dressings were performed with Tegaderm (3M, Maplewood, Minn.). We performed cell separation from mouse wound tissues as previously published^4. We digested the tissues cut into small pieces in DMEM with 10% FBS, 1.2 mg/ml hyaluronidase (Sigma Aldrich), 2 mg/ml collagenase (Sigma Aldrich), and 0.2 mg/ml DNase I (Sigma Aldrich) at 37° C. for 90 min. Cell pellets were resuspended in PBS with 2% FBS, incubated with anti-CD16/32 antibody (Biolegend, San Diego, Calif.) for 5 min to block Fcγ receptors. For inflammatory cell recruitment analysis, we stained with phycoerythrin (PE)-conjugated anti-Gr-1, allophycocyanin (APC)-conjugated anti-CD3a, PE/CY7 conjugated anti-CD4, or fluorescein isothiocyanate (FITC)-conjugated anti-CD8a antibody (CiteAb, Bath, UK) at 4° C. for 20 min. […] Cells were analyzed with FACSDiva (BD, San Jose, Calif.)."}, "wound tissue": {"test_system": "wound tissue", "assay": "Immunohistochemistry of wounds (F4/80, Ki67, CD34)", "type": "in vivo, mouse", "details": "1 uM S1P topical vs vehicle, day 5 after punch", "from_the_text": "Mouse excisional wound splinting model were generated as previously published 1. Mice were anesthetized using isoflurane and removed dorsal hair. Two of 5 mm-diameter full-thickness skin punches were created symmetrically besides the midline. 12 mm diameter circle-shaped silicon lubber splints in which 6 mm diameter circles were punched in center were used for wound splinting. […] were fixed with instant-bonding adhesive and sutures around wounds. After application with any ointment, dressings were performed with Tegaderm (3M, Maplewood, Minn.). We performed H&E, Masson's trichrome staining on paraffin-embedded sections. We used primary antibodies against F4/80, Ki67 and CD34. Immunostaining was developed with VECTASTAIN Universal Elite ABC Kit (Vector, Burlingame, Calif.). We purchased all antibodies from Abcam (Cambridge, UK). We analyzed the results using ImageJ."}, "scar neovasculature": {"test_system": "scar neovasculature", "assay": "Neovasculature analysis in scars", "type": "in vivo, mouse", "details": "S1P treatment vs vehicle, Balb/c mice, at the point of epithelization", "from_the_text": "We performed neovasculature analysis using standard approaches."}, "scar": {"test_system": "scar", "assay": "Scar thickness analysis (Masson's trichrome)", "type": "in vivo, mouse", "details": "1 μM S1P topical vs vehicle, at the point of epithelization", "from_the_text": "We performed H&E, Masson's trichrome staining on paraffin-embedded sections. We used primary antibodies against F4/80, Ki67 and CD34. Immunostaining was developed with VECTASTAIN Universal Elite ABC Kit (Vector, Burlingame, Calif.). We purchased all antibodies from Abcam (Cambridge, UK). We analyzed the results using ImageJ. We calculated scar thickness with Masson's trichrome stain images using ImageJ."}, "[2]": {"details": "NIH 3T3 stimulated with exogenous S1P for 24 hours"}}}
{"smiles": "Cc1nn(C)c2nc(NNC(=O)Nc3cc(Cl)nc(Cl)c3)cc(C(C)C)c12", "note": "[JTE013, reference compound]", "values": [{"measurement": "collagen transcription (Col1a1/Col3a1 mRNA)", "setting": "NIH 3T3 cells", "value": "increased"}]}
{"smiles": "CCCCCCCCCCCCC/C=C/[C@@H](O)[C@@H](N)COP(=O)(O)O", "note": "[S1P, sphingosine-1-phosphate]", "values": [{"measurement": "wound closure", "setting": "mouse excisional wound; 1 μM S1P topical treatment vs control vehicle", "value": "significantly promoted"}, {"measurement": "wound closure", "setting": "mouse excisional wound; 100 μM S1P treatment, Balb/c mice", "value": "significantly obstructed"}, {"measurement": "wound closure", "setting": "mouse excisional wound; high concentration S1P (100 PM) vs vehicle, C57BL6/J mice", "value": "no difference"}, {"measurement": "recruitment of granulocytes (Gr-1 positive cells)", "setting": "[1]; day 2 after punch", "value": "does not influence"}, {"measurement": "percentage of T cells in wounds", "setting": "[1]; day 5 after punch", "value": "did not increase"}, {"measurement": "angiogenesis (CD34 immunohistochemistry)", "setting": "wound tissue", "value": "promoting angiogenesis"}, {"measurement": "cell proliferation (Ki67)", "setting": "wound tissue", "value": "no effect"}, {"measurement": "neovasculatures in scars", "setting": "scar neovasculature", "value": "confirmed the development of neovasculatures"}, {"measurement": "scar thickness", "setting": "scar", "value": "statistically significant reduction in scar thickness were not obtained"}, {"measurement": "transcription of Col1a1", "setting": "NIH 3T3 cells; [2]", "value": "inhibited"}, {"measurement": "transcription of Col3a1", "setting": "NIH 3T3 cells; [2]", "value": "inhibited"}]}
{"smiles": "CCCCCCCCc1cccc(NC(=O)[C@H](N)COP(=O)(O)O)c1", "note": "[VPC23019, reference compound]", "values": [{"measurement": "collagen transcription (Col1a1/Col3a1 mRNA)", "setting": "NIH 3T3 cells", "value": "increased"}]}
